In brackets after ≈: the same amount, converted by molar mass. Activity calls are given as the source filed them. No cut-off for these calls is given here.

One test concerns Alternaria brassicae. Kind of test: Antifungal activity against Alternaria brassicae assessed as diameter of the zone of inhibition at 20 ug/disk by disk diffusion method. It is filed as functional. The settings on record: for zone of inhibition at 20 µg/disc: read-out: DIZ. Background: In agar diffusion tests the substance spreads into inoculated agar from a disc or well.
The next test relates to Aspergillus niger. Briefly: Antifungal activity against Aspergillus niger assessed as diameter of the zone of inhibition at 20 ug/disk by disk diffusion method. It is filed as functional. The settings on record: for zone of inhibition at 20 µg/disc: read-out: DIZ.
The next test deals with HeLa. Kind of test: Cytotoxicity against human HeLa cells. It is filed as functional, cell-based.
The test system of the next test is SW1990. Kind of test: Cytotoxicity against human SW1990 cells. It is filed as functional, cell-based.
A further test deals with NCI-H460. Briefly: Cytotoxicity against human NCI-H460 cells. The class given is functional, cell-based.

On to `C[C@@H]1[C@H](O)[C@@H](C)/C=C/C=C/C=C/C=C/C=C/C=C/C=C/[C@H](O[C@@H]2O[C@H](C)[C@@H](O)[C@H](N)[C@@H]2O)C[C@@H]2O[C@](O)(C[C@@H](O)C[C@@H](O)[C@H](O)CC[C@@H](O)C[C@@H](O)CC(=O)O[C@H]1C)C[C@H](O)[C@H]2C(=O)O` [AMPHOTERICIN B], for which the zone of inhibition at 20 µg/disc came to 16 mm with Alternaria brassicae and 24 mm in the test on Aspergillus niger.
Take `CC(=O)O[C@H]1C[C@H]2[C@H]3[C@H]([C@@H](O)C[C@]2(C)[C@H]1[C@H](C)/C=C/[C@H](C)C(C)C)[C@@]1(C)CC[C@H](O)C[C@@H]1C(=O)[C@@H]3O` [ANICEQUOL]: the zone of inhibition at 20 µg/disc with Alternaria brassicae came out at 6 mm. For the same molecule, the result with Aspergillus niger was Active.
Regarding `CC(=O)O[C@H]1C[C@H]2[C@H]3[C@H]([C@@H](O)C[C@]2(C)[C@H]1[C@H](C)/C=C/[C@H](C)C(C)C)[C@@]1(C)CC[C@H](O)CC1=C[C@@H]3O`, the result in the test on Alternaria brassicae and in the test on Aspergillus niger was inactive.
By IC50 is commonly meant the concentration that inhibits the measured activity by half. Read a high IC50 as weaker potency in that assay. As to `CC(=O)O[C@H]1C[C@H]2[C@@H]3[C@@H](O)[C@@H](O)[C@H]4C[C@@H](O)CC[C@]4(C)[C@H]3[C@@H](O)C[C@]2(C)[C@H]1[C@H](C)/C=C/[C@H](C)C(C)C`, the zone of inhibition at 20 µg/disc was found to be 8 mm in the test on Alternaria brassicae and 18 mm with Aspergillus niger. Moreover, the IC50 in the test on HeLa worked out at 15 µg/mL (≈ 29.6 µM); in the test on SW1990, 31 µg/mL (≈ 61.2 µM); with NCI-H460 it was 40 µg/mL (≈ 78.9 µM).

These data come from ChEMBL document CHEMBL1770064, “Penicisteroids A and B, antifungal and cytotoxic polyoxygenated steroids from the marine alga-derived endophytic fungus Penicillium chrysogenum QEN-24S” (Bioorg Med Chem Lett, 2011).
